Assays:
NK4 promoter = assay: Luciferase assay in LuNK4p21 cell line (NK4 promoter-luciferase, IPTG-inducible p21); assay type: cell-based, human
Method: This assay was performed as follows. Cells were plated at a density of 40,000 cells/well in 12 well plates in 1 mL of media containing penicillin/streptomycin, glutamine and 10% fetal calf serum (FCS). After attachment, cells were treated with 50 μM IPTG or left untreated for different periods of time. Luciferase activity was then measured as described in Example 8 above. An additional aliquot was removed from the cell lysate to measure protein concentration using the Bio-Rad protein assay kit (Bradford assay). Luciferase activity for each sample was normalized to protein content and expressed as luciferase activity/μg protein.
Luciferase assays were performed substantially as described in Example 9. Luciferase activity was measured after 16 hrs of incubation with or without 50 μM IPTG, followed by an additional 20 hr treatment in the presence or in the absence of 20 mM sodium salicylate, 1 mM sulindac, or 10 mM aspirin. […] NSAID concentrations were based on the pharmacologic concentrations of these agents in the serum of patients required for their anti-inflammatory properties (Yin et al., 1998, ibid.).

CDK4 = CDK4 (UniProt P11802); assay: cell-based or functional assay
Sequence of CDK4 (P11802 2-303 limits assumed): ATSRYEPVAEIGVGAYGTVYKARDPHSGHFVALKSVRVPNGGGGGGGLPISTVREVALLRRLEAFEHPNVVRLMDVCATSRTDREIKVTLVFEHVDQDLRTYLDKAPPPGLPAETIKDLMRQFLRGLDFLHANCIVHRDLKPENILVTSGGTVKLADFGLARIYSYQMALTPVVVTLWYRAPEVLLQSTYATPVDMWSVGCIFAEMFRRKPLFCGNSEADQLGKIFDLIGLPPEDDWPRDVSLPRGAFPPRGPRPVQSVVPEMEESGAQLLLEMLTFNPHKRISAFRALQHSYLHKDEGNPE

CDK6 = CDK6 (UniProt Q00534); assay: cell-based or functional assay
Sequence of CDK6 (Q00534 whole entry): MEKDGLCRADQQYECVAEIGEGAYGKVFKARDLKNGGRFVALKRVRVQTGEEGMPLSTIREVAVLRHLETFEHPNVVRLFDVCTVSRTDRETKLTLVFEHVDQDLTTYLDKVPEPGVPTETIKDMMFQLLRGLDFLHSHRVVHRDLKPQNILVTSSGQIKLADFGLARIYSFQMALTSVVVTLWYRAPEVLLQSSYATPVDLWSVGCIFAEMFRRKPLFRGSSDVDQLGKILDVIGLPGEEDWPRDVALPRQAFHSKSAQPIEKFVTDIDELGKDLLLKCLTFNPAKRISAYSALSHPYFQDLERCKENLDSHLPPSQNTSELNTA

p21-inducible genes = assay: RT-PCR of endogenous p21-inducible genes in LuNK4p21 cells; assay type: cell-based, human
Method: To determine whether NFκB-inhibiting NSAID inhibited not only the induction of transcription from the NK4 promoter but also RNA expression of the endogenous p21-inducible genes, LuNK4p21 cells were plated at 125,000 cells per well in 6-well plates and were either untreated or treated with 50 μM IPTG for 48 hrs (the period of time required for maximal stimulation of p21-inducible genes; Chang et al., 2000, Proc. Natl. Acad. Sci. USA 97: 4291-4296), in the presence or in the absence of sulindac, at 250 μM, 500 μM or 1 mM concentrations. After this incubation, RNA was extracted from the cells using Qiagen RNeasy Mini Kit, and relative RNA levels of several p21-inducible genes were determined by reverse transcription-PCR (RT-PCR), essentially as described by Noonan et al. (1990, Proc. Natl. Acad. Sci. USA 87: 7160-7164), except that β-actin rather than β2-microglobulin was used for cDNA normalization. The PCR cycles were as follows: for the 1st cycle, 3 min for denaturation, 2 min for annealing and 2 min for extension, and the rest of cycles, 30 sec for denaturation; 30 sec for annealing; and 1 min for extension.

[1] = 25 μM NSAID for 20 hr after 16 hrs with 50 μM IPTG

Compound: CC(=O)Oc1ccccc1C(=O)O [aspirin]
- induction of luciferase expression by IPTG (NK4 promoter; 10 mM aspirin for 20 hr after 16 hrs with 50 μM IPTG): completely or almost completely abolished

Compound: CC(C)Cc1ccc(C(C)C(=O)O)cc1 (stereo not shown) [ibuprofen]
- induction of luciferase expression by IPTG (NK4 promoter; [1]): no significant difference

Compound: p16^Ink4A (from UniProt P42771 1-156)
- cells arrested in G1 after 24 hrs of IPTG treatment (FACS analysis of DNA content) (CDK4): 93%
- cells arrested in G1 after 24 hrs of IPTG treatment (FACS analysis of DNA content) (CDK6): 93%

Compound: CC1=C(CC(=O)O)c2cc(F)ccc2/C1=C\c1ccc([S+](C)[O-])cc1 (stereo not shown) [sulindac]
- induction of luciferase expression by IPTG (NK4 promoter; 1 mM sulindac for 20 hr after 16 hrs with 50 μM IPTG): completely or almost completely abolished
- effects of IPTG on APP gene RNA (p21-inducible genes; 250 and 500 μM sulindac): diminished
- NK4 gene expression (RNA) (p21-inducible genes; absence of IPTG, sulindac 250 μM, 500 μM or 1 mM, 48 hrs): very little effect
- gene expression of all the other tested genes (p21-inducible genes; absence of IPTG, sulindac 250 μM-1 mM): dose-dependent increase
- t-TGase RNA (p21-inducible genes; compared with NK4, with and without IPTG, sulindac 250 μM-1 mM): Very similar results
- p21-induced transcription of most of the tested genes (p21-inducible genes; moderate dose of sulindac (250 μM)): inhibits the ability of p21 to induce transcription
- effects of IPTG on CTGF gene RNA (p21-inducible genes; only by 250 μM sulindac): diminished
- effects of IPTG on Mac2-binding protein (Mac2-BP) gene RNA (p21-inducible genes; only by 250 μM sulindac): diminished
- effects of IPTG on p66Shc gene RNA (p21-inducible genes; only by 250 μM sulindac): diminished
- NK4 RNA levels (p21-inducible genes; presence of 50 μM IPTG, all concentrations of sulindac (250 μM, 500 μM, 1 mM), 48 hrs): dose-dependent decrease
- gene expression of all the other tested genes (p21-inducible genes; presence of IPTG, highest dose of sulindac (1 mM)): did not decrease gene expression
- IPTG-induced RNA levels of prosaposin (p21-inducible genes; sulindac 250 μM, 500 μM, 1 mM): None of the tested sulindac concentrations produced a significant decrease
- IPTG-induced RNA levels of superoxide dismutase 2 (SOD2) (p21-inducible genes; sulindac 250 μM, 500 μM, 1 mM): None of the tested sulindac concentrations produced a significant decrease

Compound: COc1ccc2c(c1)c(CC(=O)O)c(C)n2C(=O)c1ccc(Cl)cc1 [indomethacin]
- induction of luciferase expression by IPTG (NK4 promoter; [1]): no significant difference

Compound: O=C([O-])c1ccccc1O.[Na+] [sodium salicylate]
- induction of luciferase expression by IPTG (NK4 promoter; 20 mM sodium salicylate for 20 hr after 16 hrs with 50 μM IPTG): completely or almost completely abolished

From US20030157704A1, “Reagents and methods for identifying and modulating expression of genes regulated by CDK inhibitors” (priority 2001, published 2003)
